Data published in patent publication US6040338A, “N,n-bis(sulfonyl)hydrazines useful as antineoplastic agents” (Yale University, priority 1997, dated 2000).

What was measured:
[1] = tested on: host animals; details: in vivo; cited from earlier work
[2] = tested on: tumor; details: in vivo; cited from earlier work
[3] = tested on: GSH/GST; assay: Relative rate of activation by GSH/GST in vitro; type: in vitro ADME; details: GSH 1 mM, GST 400 μg/ml; for Relative Activation Rate by GSH/GST: 1 mM compound, compound 6 = 100
Protocol: When R^3 is a methyl group, the rate of activation by GSH/GST is highly dependent upon the nature of the 2-alkoxy- or 2-aryloxycarbonyl moiety at the R^4 position.
The rate of activation of 2-(2-bromoethoxy)carbonyl-1,2-bis(methylsulfonyl)-1-methylhydrazine (compound 8) was elevated approximately 18-fold in vitro by the presence of GSH (1 mM) and GST (400 μg/ml), compared to buffer alone.

[4] = tested on: proteinase K or serum; assay: Effect of proteinase K or serum on rate of decomposition/activation; type: in vitro ADME
[5] = Initial rate of hydrolysis in aqueous media at pH 7.4 and 37° C.; type: physicochemical
Protocol: For example, the initial rates of hydrolysis of 2-acetyl-1,2-bis(methylsulfonyl)-1-methylhydrazine (an acyl derivative shown in structural formula 5) and 1,2-bis(methylsulfonyl)-2-methoxycarbonyl-1-methylhydrazine (a carbamate compound shown in structural formula 6) were 0.3% and 0.007% per minute, respectively, at pH 7.4 and 37° C. [drawing 12]

[6] = tested on: CHO-K1/dhfr^- cells transfected with NADPH:cytochrome P450 reductase cDNA; assay: Colony-forming assay, CHO-K1/dhfr^- cells overexpressing NADPH:cytochrome P450 reductase; type: cell-based, Chinese hamster; details: 1 hr, hypoxic versus aerobic (FIG. 6)
Protocol: The ability of compounds 10h, 11, 12, and 14 to exert preferential toxicity to hypoxic cells was evaluated using the EMT6 mammary carcinoma by methodology described previously (Rockwell, S., Keyes, S. R., and Sartorelli, A. C. Rad. Res. 116: 100-113 (1988); Keyes, S. R., Rockwell, S., and Sartorelli, A. C. Cancer Res. 45: 213-216 (1985)). Briefly, exponentially growing monolayers of EMT6 (or CHO-K1/dhfr clone) were exposed to a continuously flowing 95% N2 /5% CO2 humidified atmosphere for 2 h to produce radiobiologic hypoxia. Parallel flasks were maintained similarly in humidified 95% air/5% CO2. Without breaking the hypoxia, cells were exposed to various concentrations of the test agent for 1 hr. Cell survival was then measured by colony formation. […]
(§1) The cytotoxicity of compound loh was evaluated in aerobic and hypoxic Chinese hamster ovary (CHO-K1/dhfr^-) cells transfected with and overexpressing cDNAs for NADPH:cytochrome P450 reductase (27-fold more than parental cells, FIG. 3) or DT-diaphorase (133-fold more than parental cells, FIG. 4), two reductases with the potential to activate compound 10h. […]
(§2) Compound 12 was evaluated for its ability to exert preferential toxicity to hypoxic EMT6 cells relative to their aerobic counterparts. […]

[7] = tested on: EMT6 mammary carcinoma cells; assay: Colony-forming assay, EMT6 cells under hypoxic or aerobic conditions; type: cell-based, mouse
Protocol: (§3) The ability of compounds 10h, 11, 12, and 14 to exert preferential toxicity to hypoxic cells was evaluated using the EMT6 mammary carcinoma by methodology described previously (Rockwell, S., Keyes, S. R., and Sartorelli, A. C. Rad. Res. 116: 100-113 (1988); Keyes, S. R., Rockwell, S., and Sartorelli, A. C. Cancer Res. 45: 213-216 (1985)). Briefly, exponentially growing monolayers of EMT6 (or CHO-K1/dhfr clone) were exposed to a continuously flowing 95% N2 /5% CO2 humidified atmosphere for 2 h to produce radiobiologic hypoxia. Parallel flasks were maintained similarly in humidified 95% air/5% CO2. Without breaking the hypoxia, cells were exposed to various concentrations of the test agent for 1 hr. Cell survival was then measured by colony formation.
The cytotoxicity of compound 10h was evaluated against EMT6 mouse mammary carcinoma cells in vitro under aerobic and hypoxic conditions using the colony-forming assay described above. FIG. 1 depicts the survival of EMT6 cells exposed to various concentrations of compound 10h for 1 hr under hypoxic or aerobic conditions in vitro. Points are the geometric means of two or more independent determinations of surviving fractions. The SEMs are shown where n≥3 and where the error is larger than the point size. Open triangles represent aerobic data points and filled triangles represent hypoxic data points.
Compound 12 was evaluated for its ability to exert preferential toxicity to hypoxic EMT6 cells relative to their aerobic counterparts. […] Points are geometric means of two or more independent determinations of surviving fractions. The SEMs are shown where n≥3 and where the error is larger than the point size. Open triangles are aerobic data points, and filled triangles are hypoxic data points. […] Points are means of duplicate determinations. Open triangles are parental-aerobic; filled triangles are parental-hypoxic; open circles are NADPH:cytochrome P450 reductase-transfected-aerobic; filled circles are NADPH:cytochrome P450 reductase-transfected-hypoxic.

[8] = tested on: CHO-K1/dhfr^- cells; assay: Colony-forming assay, aerobic and hypoxic CHO-K1/dhfr^- cells; type: cell-based, Chinese hamster; details: 1 hr (FIG. 6)
Protocol: as §3
CHO-K1/dhfr cells were used to examine the role of the reductive enzymes NADPH:cytochrome P450 reductase and DT-diaphorase in the activation of compounds 10h and 12 in situ. Clones of CHO-K1/dhfr^- cells transfected with and overexpressing cDNAs for each of these enzymes were used for this purpose (Belcourt, M. F., Hodnick, W. F., Rockwell, S., and Sartorelli, A. C. Proc. Natl. Acad. Sci. USA 93: 456-460 (1996); Belcourt, M. F., Hodnick, W. F., Rockwell, S., and Sartorelli, A. C. Biochem. Pharmacol. 51: 1669-1678 (1996)).
as §1, with “10h. In FIGS. 3 and 4, points are means of duplicate determinations.” for “10h.”
as §2

[9] = tested on: L1210 leukemia; details: single intraperitoneal dose; cited from earlier work

CS(=O)(=O)N(CCCl)N(C(=O)NCCCl)S(C)(=O)=O [Compound 3]
host toxicity (in words) [1]: considerably less toxic to host animals than compound 2
antitumor/antineoplastic activity (in words) [2]: broad-spectrum antitumor activity

CN(N(C(=O)OCCBr)S(C)(=O)=O)S(C)(=O)=O [Compound 8, 1,2-Bis(methylsulfonyl)-2-(2-bromoethoxycarbonyl)-1-methylhydrazine]
Relative Activation Rate by GSH/GST [3]: 300
elevation of rate of activation by GSH and GST compared to buffer alone ([3]; in vitro): approximately 18 fold

COC(=O)N(N(C)S(C)(=O)=O)S(C)(=O)=O [Compound 6, 1,2-Bis(methylsulfonyl)-2-(methoxycarbonyl)-1-methylhydrazine]
Relative Activation Rate by GSH/GST [3]: 100
increase of rate of decomposition by proteinase K or serum ([4]; levels that enhanced activation of compound 5 almost 10-fold): not appreciably increased
initial rate of hydrolysis [5]: 0.007 % per minute

CC(=O)N(N(C)S(C)(=O)=O)S(C)(=O)=O [Compound 5, 2-acetyl-1,2-bis(methylsulfonyl)-1-methylhydrazine, reference compound]
enhancement of rate of activation by proteinase K or serum ([4]; levels of proteinase K or serum): ~10 fold
initial rate of hydrolysis [5]: 0.3 % per minute

COc1ccc(OC(=O)N(N(C)S(C)(=O)=O)S(C)(=O)=O)cc1 [Compound 9, 1,2-Bis(methylsulfonyl)-2-[(4-methoxyphenoxy)carbonyl]-1-methylhydrazine]
Relative Activation Rate by GSH/GST [3]: 1,700

COc1cc(COC(=O)N(N(CCCl)S(C)(=O)=O)S(C)(=O)=O)c([N+](=O)[O-])cc1OC [Compound 12, 1,2-Bis(methylsulfonyl)-1-(2-chloroethyl)-2-[(4,5-dimethoxy-2-nitrobenzyloxy)carbonyl]hydrazine]
cytotoxicity to hypoxic versus aerobic cells overexpressing NADPH-cytochrome P450 reductase [6]: > 3000 times
toxicity to aerobic EMT6 cells (in words) ([7]; 50 μM, 1 hr exposure, aerobic (FIG. 5)): relatively minor toxicity
log reduction at 50 µM ([7]; Mus musculus, EMT6, 50 μM, 1 hr exposure, hypoxic (FIG. 5), read-out: kill of hypoxic EMT6 cells): > 3
cytotoxicity to aerobic and hypoxic CHO-K1/dhfr^- cells (in words) [8]: results similar to those described for compound 10h

CS(=O)(=O)N(CCCl)N(C(=O)OCc1ccccc1)S(C)(=O)=O [Compound 11, 2-Benzyloxycarbonyl-1,2-bis(methylsulfonyl)-1-(2-chloroethyl)hydrazine]
toxicity to EMT6 cells, aerobic versus hypoxic (in words) ([7]; 1 hr, hypoxic or aerobic (FIG. 2)): essentially equitoxic to EMT6 cells under both conditions of oxygenation

CC(OC(=O)N(N(CCCl)S(C)(=O)=O)S(C)(=O)=O)c1ccc([N+](=O)[O-])cc1 (stereo not drawn) [Compound 14, 1,2-Bis(methylsulfonyl)-1-(2-chloroethyl)-2-[[1-(4-nitrophenyl)ethoxy]carbonyl]hydrazine]
toxicity to aerobic EMT6 cells compared with compound 10h (in words) ([7]; 1 hr, aerobic (FIG. 7 versus FIG. 1)): less toxic to aerobic EMT6 cells than compound 10h
toxicity to hypoxic EMT6 cells compared with compound 10h (in words) ([7]; 1 hr, hypoxic (FIG. 7 versus FIG. 1)): essentially the same as that of compound 10h

CCOC(=O)N(N(C)S(C)(=O)=O)S(C)(=O)=O [Compound 7, 1,2-Bis(methylsulfonyl)-2-(ethoxycarbonyl)-1-methylhydrazine]
Relative Activation Rate by GSH/GST [3]: 30

CS(=O)(=O)NN(CCCl)S(C)(=O)=O [Compound 2, 1,2-bis(methylsulfonyl)-1-(2-chloroethyl)hydrazine]
host toxicity (in words) [1]: considerable host toxicity
cures of mice bearing the L1210 leukemia [9]: 40%
active dosage range (in words) [2]: active only over a narrow dosage range
antitumor/antineoplastic activity (in words) [2]: most active compound of this class

CC(=O)N(N(CCCl)S(C)(=O)=O)S(C)(=O)=O [Compound 4]
host toxicity (in words) [1]: considerably less toxic to host animals than compound 2
antitumor/antineoplastic activity (in words) [2]: broad-spectrum antitumor activity
